Patent publication US20250268826A1, “IONIZABLE LIPIDOID COMPOSITIONS AND THERAPEUTIC USES THEREOF” (Flagship Pioneering Innovations VII, LLC, priority 2023, published 2025)

What was measured:
Type in all cases: physicochemical
Conditions in all cases: Table 5, hEPO mRNA, N:P 6
[1] = LNP size and polydispersity index (PDI) by dynamic light scattering (DLS)
[2] = Encapsulation efficiency (EE %) by fluorescence based Ribogreen assay
[3] = LNP Zeta potential measured using a Zetasizer (Malvern)
[4] = LNP Lipid:DSPC:Cholesterol:DMG-PEG2k 50:10:38.5:1.5 mol %

CCCCCCCCCC(CCCCCCCCC)C(=O)OCCN(CCOC(=O)C(CCCCCCCCC)CCCCCCCCC)C(=O)CN [Compound 607]
Size [1, 4]: 68.9 nm | Encapsulation Efficiency % ([2]; LNP 50:10:38.5:1.5 mol %): 99.7% | Zeta potential ([3]; LNP 50:10:38.5:1.5 mol %): −12.44 mV

CCCCCC(CCCCC)C(=O)OCCN(CCOC(=O)C(CCCCC)CCCCC)C(=O)C(C)N (stereo not shown) [Compound 608]
PDI ([1]; LNP 50:10:38.5:1.5 mol %): 0.13 | Size [1, 4]: 77.1 nm | Encapsulation Efficiency % ([2]; LNP 50:10:38.5:1.5 mol %): 97.7% | Zeta potential ([3]; LNP 50:10:38.5:1.5 mol %): −4.462 mV

CCCCCCC(CCCC)C(=O)OCCN(CCOC(=O)C(CCCC)CCCCCC)C(=O)C(C)N (stereo not shown) [Compound 609]
Size [1, 4]: 98 nm | Encapsulation Efficiency % ([2]; LNP 50:10:38.5:1.5 mol %): 99.8% | Zeta potential ([3]; LNP 50:10:38.5:1.5 mol %): −4.452 mV

CCCCCCCCC(CC)C(=O)OCCN(CCOC(=O)C(CC)CCCCCCCC)C(=O)C(C)N (stereo not shown) [Compound 610]
PDI ([1]; LNP 50:10:38.5:1.5 mol %): 0.202 | Size [1, 4]: 77.3 nm | Encapsulation Efficiency % ([2]; LNP 50:10:38.5:1.5 mol %): 99.7% | Zeta potential ([3]; LNP 50:10:38.5:1.5 mol %): −1.535 mV

CCCCCCCC(CCCCCCC)C(=O)OCCN(CCOC(=O)C(CCCCCCC)CCCCCCC)C(=O)C(C)N (stereo not shown) [Compound 611]
PDI ([1]; LNP 50:10:38.5:1.5 mol %): 0.24 | PDI ([1]; LNP 60:0:38.5:1.5 mol %): 0.244 | Size ([1]; LNP 60:0:38.5:1.5 mol %): 55.6 nm | Size [1, 4]: 155.4 nm | Encapsulation Efficiency % ([2]; LNP 50:10:38.5:1.5 mol %): 99.3% | Encapsulation Efficiency % ([2]; LNP 60:0:38.5:1.5 mol %): 98.4% | Zeta potential ([3]; LNP 50:10:38.5:1.5 mol %): −5.841 mV | Zeta potential ([3]; LNP 60:0:38.5:1.5 mol %): −5.555 mV

CCCCCCCCCCC(CCCC)C(=O)OCCN(CCOC(=O)C(CCCC)CCCCCCCCCC)C(=O)C(C)N (stereo not shown) [Compound 612]
PDI ([1]; LNP 50:10:38.5:1.5 mol %): 0.403 | Size [1, 4]: 69.9 nm | Encapsulation Efficiency % ([2]; LNP 50:10:38.5:1.5 mol %): 99.8% | Zeta potential ([3]; LNP 50:10:38.5:1.5 mol %): −3.371 mV

CCCCCCCCCCCCC(CC)C(=O)OCCN(CCOC(=O)C(CC)CCCCCCCCCCCC)C(=O)C(C)N (stereo not shown) [Compound 613]
PDI ([1]; LNP 50:10:38.5:1.5 mol %): 0.236 | Size [1, 4]: 53.7 nm | Encapsulation Efficiency % ([2]; LNP 50:10:38.5:1.5 mol %): 99.8% | Zeta potential ([3]; LNP 50:10:38.5:1.5 mol %): −6.511 mV

CCCCCCCCCC(CCCCCCCCC)C(=O)OCCN(CCOC(=O)C(CCCCCCCCC)CCCCCCCCC)C(=O)C(C)N (stereo not shown) [Compound 614]
PDI ([1]; LNP 50:10:38.5:1.5 mol %): 0.443 | Size [1, 4]: 79.1 nm | Encapsulation Efficiency % ([2]; LNP 50:10:38.5:1.5 mol %): 99.7% | Zeta potential ([3]; LNP 50:10:38.5:1.5 mol %): −8.485 mV

CCCCCC(CCCCC)C(=O)OCCN(CCOC(=O)C(CCCCC)CCCCC)C(=O)C(N)Cc1ccccc1 (stereo not shown) [Compound 615]
PDI ([1]; LNP 50:10:38.5:1.5 mol %): 0.408 | Size [1, 4]: 104.2 nm | Encapsulation Efficiency % ([2]; LNP 50:10:38.5:1.5 mol %): 98.7% | Zeta potential ([3]; LNP 50:10:38.5:1.5 mol %): −11.83 mV

CCCCCCCCC(CC)C(=O)OCCN(CCOC(=O)C(CC)CCCCCCCC)C(=O)C(N)Cc1ccccc1 (stereo not shown) [Compound 617]
PDI ([1]; LNP 50:10:38.5:1.5 mol %): 0.32 | Size [1, 4]: 63.7 nm | Encapsulation Efficiency % ([2]; LNP 50:10:38.5:1.5 mol %): 99.1% | Zeta potential ([3]; LNP 50:10:38.5:1.5 mol %): −5.824 mV

CCCCCCCC(CCCCCCC)C(=O)OCCN(CCOC(=O)C(CCCCCCC)CCCCCCC)C(=O)C(N)Cc1ccccc1 (stereo not shown) [Compound 618]
PDI ([1]; LNP 50:10:38.5:1.5 mol %): 0.304 | PDI ([1]; LNP 60:0:38.5:1.5 mol %): 0.116 | Size ([1]; LNP 60:0:38.5:1.5 mol %): 211.9 nm | Size [1, 4]: 53.9 nm | Encapsulation Efficiency % ([2]; LNP 50:10:38.5:1.5 mol %): 97.9% | Encapsulation Efficiency % ([2]; LNP 60:0:38.5:1.5 mol %): 92.8% | Zeta potential ([3]; LNP 50:10:38.5:1.5 mol %): −13.69 mV | Zeta potential ([3]; LNP 60:0:38.5:1.5 mol %): −17.91 mV

CCCCCCCCCCC(CCCC)C(=O)OCCN(CCOC(=O)C(CCCC)CCCCCCCCCC)C(=O)C(N)Cc1ccccc1 (stereo not shown) [Compound 619]
PDI ([1]; LNP 50:10:38.5:1.5 mol %): 0.183 | Size [1, 4]: 60.7 nm | Encapsulation Efficiency % ([2]; LNP 50:10:38.5:1.5 mol %): 98.1% | Zeta potential ([3]; LNP 50:10:38.5:1.5 mol %): −11.63 mV

CCCCCCCCCCCCC(CC)C(=O)OCCN(CCOC(=O)C(CC)CCCCCCCCCCCC)C(=O)C(N)Cc1ccccc1 (stereo not shown) [Compound 620]
PDI ([1]; LNP 50:10:38.5:1.5 mol %): 0.23 | Size [1, 4]: 56.7 nm | Encapsulation Efficiency % ([2]; LNP 50:10:38.5:1.5 mol %): 99% | Zeta potential ([3]; LNP 50:10:38.5:1.5 mol %): −5.044 mV
